Experimental data from paper PMC4494873 (Bioorganic & medicinal chemistry letters, 2015).
Entries after “also recorded” stand apart in the source; their conditions may differ.

Columns and labels:
HSA = conditions: betulinic acid 0.01−0.1 mM, HSA 0.025 mM, fluorescence excitation at 285 nm; ref [34]; cited from earlier work
Vero cells = assay: Cytotoxicity in Vero cells
HSV-2 186 = assay: Viral replication yield reduction assay; assay type: cell-based, herpes simplex virus type-2 (HSV-2); conditions: selectivity index, Vero
[1] = molecular target: human serum albumin (HSA) (Homo sapiens, UniProt P02768); assay: Fluorescence titration with HSA; assay type: binding
Sequence of human serum albumin (HSA) (P02768 25-609): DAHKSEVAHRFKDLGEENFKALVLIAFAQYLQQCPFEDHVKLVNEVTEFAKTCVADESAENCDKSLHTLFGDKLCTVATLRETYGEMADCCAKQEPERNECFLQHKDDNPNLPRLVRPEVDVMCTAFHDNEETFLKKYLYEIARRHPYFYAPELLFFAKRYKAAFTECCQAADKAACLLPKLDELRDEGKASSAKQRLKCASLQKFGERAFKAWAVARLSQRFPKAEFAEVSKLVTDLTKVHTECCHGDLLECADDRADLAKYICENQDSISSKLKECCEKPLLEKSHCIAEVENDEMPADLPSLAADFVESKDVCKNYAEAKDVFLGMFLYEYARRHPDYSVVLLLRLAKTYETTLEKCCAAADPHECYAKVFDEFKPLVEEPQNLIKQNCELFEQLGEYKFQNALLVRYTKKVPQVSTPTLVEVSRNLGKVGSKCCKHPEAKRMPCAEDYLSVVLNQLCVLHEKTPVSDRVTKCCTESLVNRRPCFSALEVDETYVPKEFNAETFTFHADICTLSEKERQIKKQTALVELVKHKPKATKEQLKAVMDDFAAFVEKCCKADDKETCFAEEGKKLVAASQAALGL

[2] = cited from earlier work
HIV-1 virus = assay: Anti-HIV activity: Jurkat cells infected with HIV-1, MTT assay and RT assay; assay type: cell-based; conditions: 1 μg/mL or 5 μg/mL, compared with DMSO and AZT
[3] = test system: Multiple HSV-2 (including 186); conditions: Vero, multiple HSV-2 isolates including 186; ref [32], [33]; cited from earlier work

C=C(C)[C@@H]1CC[C@]2(C(=O)O)CC[C@]3(C)[C@H](CC[C@@H]4[C@@]5(C)CC[C@H](O)C(C)(C)[C@@H]5CC[C@]43C)[C@@H]12 [Compound 1, 3β-hydroxy-lup-20(29)-en-28-oic acid]
binding constant with HSA (HSA): 1.685e+06 M⁻¹ | cellular cytotoxicity (in words) (Vero cells): low cytotoxicity; also recorded: minimal cellular cytotoxicity | SI (HSV-2 186): > 62.5 | Kd ([1]; Kd (285 nm), fluorescence excitation at 285 nm): 4500 nM | Kd ([1]; Kd (295 nm), fluorescence excitation at 295 nm): 1300 nM | solubility in DMSO ([2]; 25 °C, ref [23]): 5 % (w/v) | solubility in ethanol ([2]; 25 °C, ref [23]): 1 % (w/v) | solubility in water ([2]; room temperature, ref [22]): about 0.02 μg mL^−1 | inhibitory activity of HIV-1 RT (in words) (HIV-1 virus): no inhibitory activity

Nc1nc2c(ncn2COCCO)c(=O)[nH]1 [Acyclovir]
IC50 [3]: 100 to 10000 nM
